Key:
Assay type in all cases: in vivo
[1] = tested on: velvetleaf (Abutilon theophrasti); test: Test G Pre-Emergence Protocol; details: Abutilon theophrasti, pre-emergence, 312 h, evaluated after 13 days
Procedure, shortened: (§1)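 Herbicidal effect was rated 13 days post-application on a scale where 100 equals total damage. Spraying took place the day after sowing, using 15.625, 62.5 or 250 g/ha of compound in a 50:50 acetone/water solution with 0.5% Tween 20.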

[2] = tested on: redroot pigweed (Amaranthus retroflexus); test: Test G Pre-Emergence Protocol; details: Amaranthus retroflexus, pre-emergence, 312 h, evaluated after 13 days
Procedure, shortened: as §1

[3] = tested on: giant foxtail (Setaria faberi); test: Test G Pre-Emergence Protocol; details: Setaria faberi, pre-emergence, 312 h, evaluated after 13 days
Procedure, shortened: as §1

corn (Zea mays) [4] = test: Test G Pre-Emergence Protocol; details: Zea mays, pre-emergence, 312 h, evaluated after 13 days
Procedure, shortened: as §1

[5] = tested on: ivy-leaved morning glory (Ipomoea hederacea); test: Test G Pre-Emergence Protocol; details: Ipomoea, pre-emergence, 312 h, evaluated after 13 days
Procedure, shortened: as §1

[6] = tested on: barnyardgrass (Echinochloa crus-galli); test: Test G Pre-Emergence Protocol; details: Echinochloa crus-galli, pre-emergence, 312 h, evaluated after 13 days
Procedure, shortened: as §1

[7] = tested on: velvetleaf (Abutilon theophrasti); test: Test G Post-Emergence Protocol; details: Abutilon theophrasti, post-emergence, 312 h
Procedure, shortened: (§2)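 Post-emergence herbicidal damage, scored visually 0–100 at 13 days. Application at 15.625, 62.5 or 250 g/ha onto 8-day-old plants grown under glasshouse control.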

[8] = tested on: redroot pigweed (Amaranthus retroflexus); test: Test G Post-Emergence Protocol; details: Amaranthus retroflexus, post-emergence, 312 h
Procedure, shortened: as §2

[9] = tested on: giant foxtail (Setaria faberi); test: Test G Post-Emergence Protocol; details: Setaria faberi, post-emergence, 312 h
Procedure, shortened: as §2

corn (Zea mays) [10] = test: Test G Post-Emergence Protocol; details: Zea mays, post-emergence, 312 h
Procedure, shortened: as §2

[11] = tested on: ivy-leaved morning glory (Ipomoea hederacea); test: Test G Post-Emergence Protocol; details: Ipomoea, post-emergence, 312 h
Procedure, shortened: as §2

[12] = tested on: barnyardgrass (Echinochloa crus-galli); test: Test G Post-Emergence Protocol; details: Echinochloa crus-galli, post-emergence, 312 h
Procedure, shortened: as §2

CN1C[C@H](c2ccc(C(F)(F)F)cc2)[C@@H](C(=O)Nc2cccc3nsnc23)C1=O (racemic) [Compound 1430]
pest or weed control at 15.625 g/ha ([1]; 15.625 g ai/ha, read-out: Velvetleaf damage rating (100=total damage to plant; 0=no damage to plant)): 0% | pest or weed control at 62.5 g/ha ([1]; 62.5 g ai/ha, 100=total damage to plant, 0=no damage to plant, read-out: plant damage rating, Velvetleaf): 0% | pest or weed control at 250 g/ha ([1]; 250 g ai/ha, read-out: Velvetleaf damage rating (100=total damage to plant; 0=no damage to plant)): 0% | pest or weed control at 15.625 g/ha ([2]; 15.625 g ai/ha, read-out: Pigweed, Redroot damage rating (100=total damage to plant; 0=no damage to plant)): 0% | pest or weed control at 62.5 g/ha ([2]; 62.5 g ai/ha, 100=total damage to plant, 0=no damage to plant, read-out: plant damage rating, Pigweed, Redroot): 0% | pest or weed control at 250 g/ha ([2]; 250 g ai/ha, read-out: Pigweed, Redroot damage rating (100=total damage to plant; 0=no damage to plant)): 0% | pest or weed control at 15.625 g/ha ([3]; 15.625 g ai/ha, read-out: Foxtail, Giant damage rating (100=total damage to plant; 0=no damage to plant)): 10% | pest or weed control at 62.5 g/ha ([3]; 62.5 g ai/ha, 100=total damage to plant, 0=no damage to plant, read-out: plant damage rating, Foxtail, Giant): 50% | pest or weed control at 250 g/ha ([3]; 250 g ai/ha, read-out: Foxtail, Giant damage rating (100=total damage to plant; 0=no damage to plant)): 80% | plant injury at 15.625 g/ha (corn (Zea mays) [4]; 15.625 g ai/ha, read-out: Corn damage rating (100=total damage to plant; 0=no damage to plant)): 0% | plant injury at 62.5 g/ha (corn (Zea mays) [4]; 62.5 g ai/ha, 100=total damage to plant, 0=no damage to plant, read-out: plant damage rating, Corn): 0% | plant injury at 250 g/ha (corn (Zea mays) [4]; 250 g ai/ha, read-out: Corn damage rating (100=total damage to plant; 0=no damage to plant)): 0% | pest or weed control at 15.625 g/ha ([5]; 15.625 g ai/ha, read-out: Morning-glory, Ivy-leaved damage rating (100=total damage to plant; 0=no damage to plant)): 0% | pest or weed control at 62.5 g/ha ([5]; 62.5 g ai/ha, 100=total damage to plant, 0=no damage to plant, read-out: plant damage rating, Morningglory, Ivy-leaved): 0% | pest or weed control at 250 g/ha ([5]; 250 g ai/ha, read-out: Morningglory, Ivy-leaved damage rating (100=total damage to plant; 0=no damage to plant)): 0% | pest or weed control at 15.625 g/ha ([6]; 15.625 g ai/ha, read-out: Barnyard grass damage rating (100=total damage to plant; 0=no damage to plant)): 0% | pest or weed control at 62.5 g/ha ([6]; 62.5 g ai/ha, 100=total damage to plant, 0=no damage to plant, read-out: plant damage rating, Barnyardgrass): 20% | pest or weed control at 250 g/ha ([6]; 250 g ai/ha, read-out: Barnyardgrass damage rating (100=total damage to plant; 0=no damage to plant)): 60% | pest or weed control at 15.625 g/ha ([7]; 15.625 g ai/ha, evaluated after 13 days (100=total damage to plant; 0=no damage to plant), read-out: Velvetleaf damage rating): 0% | pest or weed control at 62.5 g/ha ([7]; 62.5 g ai/ha, evaluated after 13 days, read-out: Velvetleaf damage rating (100=total damage to plant; 0=no damage to plant)): 0% | pest or weed control at 250 g/ha ([7]; 250 g ai/ha, evaluated after 13 days, read-out: damage to plant, Velvetleaf (100=total damage to plant; 0=no damage to plant)): 0% | pest or weed control at 15.625 g/ha ([8]; 15.625 g ai/ha, evaluated after 13 days (100=total damage to plant; 0=no damage to plant), read-out: Pigweed, Redroot damage rating): 0% | pest or weed control at 62.5 g/ha ([8]; 62.5 g ai/ha, evaluated after 13 days, read-out: Pigweed, Redroot damage rating (100=total damage to plant; 0=no damage to plant)): 0% | pest or weed control at 250 g/ha ([8]; 250 g ai/ha, evaluated after 13 days, read-out: damage to plant, Pigweed, Redroot (100=total damage to plant; 0=no damage to plant)): 20% | pest or weed control at 15.625 g/ha ([9]; 15.625 g ai/ha, evaluated after 13 days (100=total damage to plant; 0=no damage to plant), read-out: Foxtail, Giant damage rating): 0% | pest or weed control at 62.5 g/ha ([9]; 62.5 g ai/ha, evaluated after 13 days, read-out: Foxtail, Giant damage rating (100=total damage to plant; 0=no damage to plant)): 10% | pest or weed control at 250 g/ha ([9]; 250 g ai/ha, evaluated after 13 days, read-out: damage to plant, Foxtail, Giant (100=total damage to plant; 0=no damage to plant)): 50% | plant injury at 15.625 g/ha (corn (Zea mays) [10]; 15.625 g ai/ha, evaluated after 13 days (100=total damage to plant; 0=no damage to plant), read-out: Corn damage rating): 0% | plant injury at 62.5 g/ha (corn (Zea mays) [10]; 62.5 g ai/ha, evaluated after 13 days, read-out: Corn damage rating (100=total damage to plant; 0=no damage to plant)): 0% | plant injury at 250 g/ha (corn (Zea mays) [10]; 250 g ai/ha, evaluated after 13 days, read-out: damage to plant, Corn (100=total damage to plant; 0=no damage to plant)): 0% | pest or weed control at 15.625 g/ha ([11]; 15.625 g ai/ha, evaluated after 13 days (100=total damage to plant; 0=no damage to plant), read-out: Morningglory, Ivy-leaved damage rating): 0% | pest or weed control at 62.5 g/ha ([11]; 62.5 g ai/ha, evaluated after 13 days, read-out: Morningglory, Ivy-leaved damage rating (100=total damage to plant; 0=no damage to plant)): 0% | pest or weed control at 250 g/ha ([11]; 250 g ai/ha, evaluated after 13 days, read-out: damage to plant, Morningglory, Ivy-leaved (100=total damage to plant; 0=no damage to plant)): 0% | pest or weed control at 15.625 g/ha ([12]; 15.625 g ai/ha, evaluated after 13 days (100=total damage to plant; 0=no damage to plant), read-out: Barnyardgrass damage rating): 0% | pest or weed control at 62.5 g/ha ([12]; 62.5 g ai/ha, evaluated after 13 days, read-out: Barnyardgrass damage rating (100=total damage to plant; 0=no damage to plant)): 0% | pest or weed control at 250 g/ha ([12]; 250 g ai/ha, evaluated after 13 days, read-out: damage to plant, Barnyardgrass (100=total damage to plant; 0=no damage to plant)): 30%

From patent US12077503B2, “Substituted cyclic amides and their use as herbicides” (FMC CORPORATION, priority 2015, dated 2024)
